Earlier results, collected in patent US4020157A, “Shortened analogs of somatostatin” (Ayerst McKenna and Harrison Ltd., priority 1975, dated 1977).

Conditions: reported by D. Sarantakis et al.

[Ala^3,14 ]-somatostatin (AGAKNFFWKTFTSA; Somatostatin-14; UniProt P61278 103-116, looked up, variant C3A C14A) [somatostatin analog synthesized by solid phase methods (Sarantakis et al.)]
activity as % of the potency of somatostatin: about 0.01%
